Consider three compounds from patent US11801247B1, “Method of treating trypanosomiasis” (KING FAISAL UNIVERSITY, priority 2023, dated 2023).

SMILES strings stand for the structures. Converted amounts (≈) assume the structure as drawn. Read-outs that look alike come from different tables or passages of the source. Bounds are passed on as bounds.

Test [1] deals with T. brucei. The conditions noted are these: cited from earlier work; for potency against T. brucei: thymidine and folate-deficient medium.
In test [2] the target is TS activity of TbDHFR-TS (Trypanosoma brucei brucei, UniProt Q27783). The conditions noted are these: cited from earlier work.
Chain of TS activity of TbDHFR-TS (Q27783 whole entry): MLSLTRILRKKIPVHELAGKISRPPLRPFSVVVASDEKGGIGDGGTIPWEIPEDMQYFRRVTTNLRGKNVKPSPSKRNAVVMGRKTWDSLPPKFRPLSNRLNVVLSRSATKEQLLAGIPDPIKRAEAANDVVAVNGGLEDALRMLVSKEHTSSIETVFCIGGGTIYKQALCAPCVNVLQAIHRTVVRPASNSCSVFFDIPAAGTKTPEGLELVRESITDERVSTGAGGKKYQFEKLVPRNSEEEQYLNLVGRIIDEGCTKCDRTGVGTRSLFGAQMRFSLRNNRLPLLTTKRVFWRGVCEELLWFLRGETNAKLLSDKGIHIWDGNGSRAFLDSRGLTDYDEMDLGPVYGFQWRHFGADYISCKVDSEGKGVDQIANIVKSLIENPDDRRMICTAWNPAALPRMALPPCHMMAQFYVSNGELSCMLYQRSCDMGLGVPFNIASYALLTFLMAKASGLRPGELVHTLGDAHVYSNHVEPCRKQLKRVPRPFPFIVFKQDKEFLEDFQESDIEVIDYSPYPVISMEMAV
The target of test [3] is DHFR activity of TbDHFR-TS (Trypanosoma brucei brucei, UniProt Q27783). The note with it: cited from earlier work.
Chain of DHFR activity of TbDHFR-TS (Q27783 whole entry): as above
Test [4] concerns six Trypanosoma species. Put plainly: Anti-trypanosomal assay, six trypanosomes taken together. Format: cell-based. The text has this:
(§1) Raltitrexed was purchased from ApexBio (Houston, TX, USA), and CultureSure DMSO was obtained from Wako Pure Chemical (Osaka, Japan). T. b. brucei (Tbb) GuTat3.1, T. b. rhodesiense (Tbr) IL1501, T. b. gambiense (Tbg) IL1922 (isolated from Ivory Coast), T. evansi (Tev) Tansui (isolated from Taiwan), T. equiperdum (Teq) IVM-t1 and T. congolense (Tc) IL3000 were also obtained for this study. A 96-well Optical bottom plate was purchased from ThermoFisher […] (Waltham, MA, USA). CellTiter-Glo Luminescent cell viability reagent and GloMax plate reader were purchased from Promega Corporation (Fitchburg, WI, USA). Hiram's modified Isocove's Dulbecco's medium (HMI-9), HEPES, pyruvic acid sodium salt, BSA, thymidine, 2-mercaptoethanol, L-cysteine, bathocuproine and hypoxanthine were purchased from Sigma-Aldrich (Tokyo, Japan). A basic plate shaker was obtained from IKA® JAPAN (K.K., Osaka, Japan).
(§2) The trypanocidal activity of raltitrexed was evaluated. The trypanosomes were cultured at 37° C. for Tbb, Tbg, Tbr, Teq and Tev and 33° C. for Tc in an incubator at 5% CO2 using HMI-9 supplemented with 20% heat-inactivated fetal calf serum, 60 mM HEPES, 10 μg/L insulin, 0.1 mM bathocuproine, 5.5 μg/L transferrin, 1 mM pyruvic acid sodium salt, 1 mM hypoxanthine, 16 μM thymidine, 6.7 ng/L sodium selenite, 0.0001% 2-$-mercaptoethanol, 2 mM L-cysteine and 0.4 g/L BSA. Trypanosomes were subcultured every two days. Raltitrexed was dissolved in DMSO:H2O (1:10, v/v). The effect of the solvent was assessed to be negligible on the parasite.
Initially, raltitrexed was examined at two concentrations of 25 and 0.25 μg/ml to check the possible extended spectrum opportunities against six trypanosomes. […] This range was effective in the accurate estimation of the IC50 of the compound. […] After mixing, the bioluminescence of each well was measured using a Glomax plate reader.

Test [5] relates to T. congolense (Tc) IL3000. The experiment in a line: Anti-trypanosomal assay (CellTiter-Glo viability). Format: cell-based. The note with it: TcIL3000.
Text: as §1, §2
(§3) Initially, raltitrexed was examined at two concentrations of 25 and 0.25 μg/ml to check the possible extended spectrum opportunities against six trypanosomes. […] This range was effective in the accurate estimation of the IC50 of the compound. After three days of cultivation, 25 μL of CellTiter-Glo Luminescent cell viability reagent were aliquoted into each well, and the plate was shaken for 500 shakes/min by an MS3 basic plate shaker for 30 s to facilitate cell lysis and release intracellular ATP. After mixing, the bioluminescence of each well was measured using a Glomax plate reader.
On the technique in general: In ATP-based viability assays light output follows the ATP content of the culture.

The test system of test [6] is T. b. gambiense (Tbg) IL1922. Put plainly: Anti-trypanosomal assay (CellTiter-Glo viability). Format: cell-based. The conditions noted are these: TbgIL1922, mean ± SD.
Text: as §1, §2, §3

In test [7] the test system is T. equiperdum (Teq) IVM-t1. The experiment in a line: Anti-trypanosomal assay (CellTiter-Glo viability). The note with it: mean ± SD. It is filed as cell-based.
Text: as §1, §2, §3

In test [8] the test system is T. b. brucei (Tbb) GuTat3.1. The experiment in a line: Anti-trypanosomal assay (CellTiter-Glo viability). Format: cell-based. The note with it: TbbGUTat3.1, mean ± SD.
Text: as §1, §2, §3

For test [9], the system named is T. b. rhodesiense (Tbr) IL1501. Put plainly: Anti-trypanosomal assay (CellTiter-Glo viability). It is filed as cell-based. The conditions noted are these: TbrIL1501, mean ± SD.
Text: as §1, §2, §3

Test [10] concerns T. evansi (Tev) Tansui. Put plainly: Anti-trypanosomal assay (CellTiter-Glo viability). It is filed as cell-based. The conditions noted are these: mean ± SD.
Text: as §1, §2, §3

On to `Cc1nc2ccc(CN(C)c3ccc(C(=O)N[C@@H](CCC(=O)O)C(=O)O)s3)cc2c(=O)[nH]1` [Raltitrexed], for which the “effect of adding folate and thymidine on effectiveness” value in test [1] (folate and/or thymidine added to the medium) is “addition of thymidine decreased the effectiveness of raltitrexed more so than the addition of folate”. The “potency against T. brucei” value in [1] is on record as “Nanomolar potency”. The IC50 (in general, the concentration that gives 50% inhibition) was 0.215 µM in [2]; 0.0931 µM in test [3]; 5.18 to 24.1 µg/mL (≈ 11.3 to 52.6 µM) in [4] (Trypanosoma, range across species, serial dilution 25 to 0.78 μg/mL, read-out: IC50 range over the Trypanosoma species); 8.88 to 22.5 µg/mL (≈ 19.4 to 49.1 µM) in test [4] (range against Trypanosoma, summary statement, read-out: estimated IC50 range); above 25 µg/mL in test [5] (Trypanosoma congolense, 72 h, three days of cultivation). Besides, the “trypanocidal action on all test strains” value in test [4] (25 μg/mL) is “suppressed all the test strains”. Besides, the “Inhibition Rate at 25 μg/mL” value in [5] (25 μg/mL, mean ± SD) is reported as “low trypanocidal rate”; in test [6] (25 μg/mL), 99.6 ± 0.33%; in test [7] (25 μg/mL) it was 99.8 ± 0.027%; in test [8] (25 μg/mL), 99.47 ± 0.07%; in test [9] (25 μg/mL), 99.68 ± 0.16%; in test [10] (25 μg/mL) it was 99.9 ± 0.12%. Further, the inhibition at 0.25 µg/mL came out at 0% in [5] (Trypanosoma congolense, 0.25 μg/mL, mean ± SD, read-out: Inhibition Rate at 0.25 μg/mL); 0% in test [6] (Trypanosoma brucei, GAMBIENSE, 0.25 μg/mL, read-out: Inhibition Rate at 0.25 μg/mL); 0% in test [7] (Trypanosoma equiperdum, 0.25 μg/mL, read-out: Inhibition Rate at 0.25 μg/mL); 0% in [8] (Trypanosoma brucei, 0.25 μg/mL, read-out: Inhibition Rate at 0.25 μg/mL); 1.01 ± 1.4% in test [9] (Trypanosoma brucei, RHODESIENSE, 0.25 μg/mL, read-out: Inhibition Rate at 0.25 μg/mL); 0% in test [10] (0.25 μg/mL, read-out: Inhibition Rate at 0.25 μg/mL). For the same compound, the inhibition at 25 µg/mL in test [5] (Trypanosoma congolense, 25 μg/mL, mean ± SD, read-out: Inhibition Rate at 25 μg/mL) was 1.77 ± 2.5%; in test [6] (Trypanosoma brucei, GAMBIENSE, 25 μg/mL, read-out: Inhibition Rate at 25 μg/mL), above 99%; in [7] (Trypanosoma equiperdum, 25 μg/mL, read-out: Inhibition Rate at 25 μg/mL) it was above 99%; in test [8] (Trypanosoma brucei, 25 μg/mL, read-out: Inhibition Rate at 25 μg/mL), above 99%; in test [9] (Trypanosoma brucei, RHODESIENSE, 25 μg/mL, read-out: Inhibition Rate at 25 μg/mL), above 99%; in test [10] (25 μg/mL, read-out: Inhibition Rate at 25 μg/mL), above 99%.

With `CN(Cc1cnc2nc(N)nc(N)c2n1)c1ccc(C(=O)N[C@@H](CCC(=O)O)C(=O)O)cc1` [methotrexate], the “potency against T. brucei” value in [1] is “Nanomolar potency”.

As to `Nc1nc2[nH]cc(CCc3ccc(C(=O)N[C@@H](CCC(=O)O)C(=O)O)cc3)c2c(=O)[nH]1` [pemetrexed], in [1], the “potency against T. brucei” value is “Nanomolar potency”.
